Test results: patent publication US8975398B2, “NAMPT inhibitors” (AbbVie Inc., priority 2012, dated 2015)

Columns and labels:
[1] = biological target: NAMPT (human, recombinant, C-terminally His-tagged) (Homo sapiens, UniProt P43490); assay: Time-Resolved Fluorescence Resonance Energy Transfer (TR-FRET) Binding Assay of NAMPT; details: 6.8 nM NAMPT, 200 nM probe, equilibrated 3 hours, absence of substrates
Procedure, shortened: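 Recombinant C-terminally His-tagged human NAMPT (6.8 nM) incubated 3 h at room temperature with 200 nM Oregon Green 488–labelled nicotinamide-competitive probe and 1 nM Tb-anti-His antibody in HEPES pH 7.5, 2% DMSO. TR-FRET ratio Em520/Em495 normalized to controls; IC50 from four-parameter logistic fit.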

NAMPT = NAMPT (Homo sapiens, UniProt P43490); assay: Time-Resolved Fluorescence Resonance Energy Transfer (TR-FRET) Binding Assay of NAMPT with PRPP; details: 2 nM NAMPT, 2 nM probe, 200 uM PRPP and 2.5 mM ATP, equilibrated 16 hours
Procedure, shortened: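 Final mix: 2 nM NAMPT, 2 nM probe, 1 nM Tb-anti-His antibody, 200 uM PRPP, 2.5 mM ATP, 2% DMSO in 1× assay buffer. Equilibrated 16 hours before TR-FRET read, allowing possible enzymatic modification of compounds.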

NAMPT, sequence (P43490 whole entry): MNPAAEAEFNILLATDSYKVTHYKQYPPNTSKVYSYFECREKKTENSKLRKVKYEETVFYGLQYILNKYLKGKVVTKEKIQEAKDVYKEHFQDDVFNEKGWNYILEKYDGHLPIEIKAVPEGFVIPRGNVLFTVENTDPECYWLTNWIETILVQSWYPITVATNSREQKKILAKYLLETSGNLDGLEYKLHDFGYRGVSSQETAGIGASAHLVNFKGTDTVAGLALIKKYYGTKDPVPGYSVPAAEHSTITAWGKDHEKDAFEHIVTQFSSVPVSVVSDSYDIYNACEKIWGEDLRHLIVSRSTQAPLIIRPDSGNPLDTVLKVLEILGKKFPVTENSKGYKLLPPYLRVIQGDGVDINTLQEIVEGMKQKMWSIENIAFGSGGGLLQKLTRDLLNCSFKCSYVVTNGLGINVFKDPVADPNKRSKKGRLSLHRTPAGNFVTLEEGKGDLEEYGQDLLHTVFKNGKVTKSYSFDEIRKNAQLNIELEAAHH
NAMPT (human, recombinant, C-terminally His-tagged), sequence (P43490 whole entry): as above

## Cc1ncccc1N1CC(C(=O)Nc2ccc(C3CCN(C(=O)c4cccc(F)c4)CC3)cc2)C1 [Example 152, N-{4-[1-(3-fluorobenzoyl)piperidin-4-yl]phenyl}-1-(2-methylpyridin-3-yl)azetidine-3-carboxamide]
[1]
  IC50: 87.6 nM
NAMPT
  IC50: 101 nM

## CCCN1CCC(c2ccc(NC(=O)C3CN(c4cccnc4)C3)cc2)CC1 [Example 95, N-[4-(1-propylpiperidin-4-yl)phenyl]-1-(pyridin-3-yl)azetidine-3-carboxamide]
[1]
  IC50: 1360 nM
NAMPT
  IC50: 1.02 nM

## CCC(C)(C)C(=O)N1CCC(c2ccc(NC(=O)C3CN(c4cccnn4)C3)cc2)CC1 [Example 325, N-{4-[1-(2,2-dimethylbutanoyl)piperidin-4-yl]phenyl}-1-(pyridazin-3-yl)azetidine-3-carboxamide]
[1]
  IC50: 14 nM
NAMPT
  IC50: 1.08 nM

## O=C(Nc1ccc(C2CCN(C(=O)CSc3ncccn3)CC2)cc1)C1CN(c2cccnn2)C1 [Example 382, 1-(pyridazin-3-yl)-N-(4-{1-[(pyrimidin-2-ylsulfanyl)acetyl]piperidin-4-yl}phenyl)azetidine-3-carboxamide]
[1]
  IC50: 65.8 nM
NAMPT
  IC50: 0.657 nM

## O=C(Nc1ccc(OC2CCN(C(=O)CC3CC3)CC2)cc1)C1CN(c2cccnn2)C1 [Example 233, N-(4-{[1-(cyclopropylacetyl)piperidin-4-yl]oxy}phenyl)-1-(pyridazin-3-yl)azetidine-3-carboxamide]
[1]
  IC50: 113 nM
NAMPT
  IC50: 0.614 nM

## O=C(Nc1ccc(OC2CCN(C(=O)Cc3ccc(OC(F)(F)F)cc3)CC2)cc1)C1CN(c2cccnn2)C1 [Example 238, 1-(pyridazin-3-yl)-N-{4-[(1-{[4-(trifluoromethoxy)phenyl]acetyl}piperidin-4-yl)oxy]phenyl}azetidine-3-carboxamide]
[1]
  IC50: 207 nM
NAMPT
  IC50: 0.554 nM

## CCC(CC)CN1CCC(Oc2ccc(NC(=O)C3CN(c4cccnc4)C3)cc2)CC1 [Example 78, N-(4-{[1-(2-ethylbutyl)piperidin-4-yl]oxy}phenyl)-1-(pyridin-3-yl)azetidine-3-carboxamide]
[1]
  IC50: 265 nM
NAMPT
  IC50: 0.632 nM

## O=C(Nc1ccc(OC2CCN(C(=O)c3cccc(Cl)c3)CC2)cc1)C1CN(c2ccnnc2)C1 [Example 295, N-(4-{[1-(3-chlorobenzoyl)piperidin-4-yl]oxy}phenyl)-1-(pyridazin-4-yl)azetidine-3-carboxamide]
[1]
  IC50: 77.6 nM
NAMPT
  IC50: 51 nM

## O=C(Nc1ccc(OC2CN(C(=O)c3ccoc3)C2)cc1)C1CN(c2ccnnc2)C1 [Example 209, N-(4-{[1-(furan-3-ylcarbonyl)azetidin-3-yl]oxy}phenyl)-1-(pyridazin-4-yl)azetidine-3-carboxamide]
[1]
  IC50: 61.7 nM
NAMPT
  IC50: 28.9 nM

## COCC(=O)N1CCC(c2ccc(NC(=O)C3CN(c4cccnc4)C3)cc2)CC1 [Example 135, N-{4-[1-(methoxyacetyl)piperidin-4-yl]phenyl}-1-(pyridin-3-yl)azetidine-3-carboxamide]
[1]
  IC50: 33.9 nM
NAMPT
  IC50: 0.293 nM

## CCCCCCC(=O)N1CCC(c2ccc(NC(=O)C3CN(c4cccnn4)C3)cc2)CC1 [Example 329, N-[4-(1-heptanoylpiperidin-4-yl)phenyl]-1-(pyridazin-3-yl)azetidine-3-carboxamide]
[1]
  IC50: 24.2 nM
NAMPT
  IC50: 0.616 nM

## O=C(Nc1ccc(OC2CCN(C(=O)c3nccs3)CC2)cc1)C1CN(c2cccnc2)C1 [Example 68, 1-(pyridin-3-yl)-N-(4-{[1-(1,3-thiazol-2-ylcarbonyl)piperidin-4-yl]oxy}phenyl)azetidine-3-carboxamide]
[1]
  IC50: 80.6 nM
NAMPT
  IC50: 0.569 nM

## N#Cc1ccc(C(=O)N2CCC(c3ccc(NC(=O)C4CN(c5cccnn5)C4)cc3)CC2)cc1 [Example 353, N-{4-[1-(4-cyanobenzoyl)piperidin-4-yl]phenyl}-1-(pyridazin-3-yl)azetidine-3-carboxamide]
[1]
  IC50: 88.2 nM
NAMPT
  IC50: 0.472 nM

## O=C(Nc1ccc(C2CCN(C(=O)c3cc(Cl)ccc3Cl)CC2)cc1)C1CN(c2cccnn2)C1 [Example 363, N-{4-[1-(2,5-dichlorobenzoyl)piperidin-4-yl]phenyl}-1-(pyridazin-3-yl)azetidine-3-carboxamide]
[1]
  IC50: 10.4 nM
NAMPT
  IC50: 0.798 nM

## O=C(Nc1ccc(C2CCN(C(=O)Cc3cc(F)cc(F)c3)CC2)cc1)C1CN(c2cccnn2)C1 [Example 384, N-(4-{1-[(3,5-difluorophenyl)acetyl]piperidin-4-yl}phenyl)-1-(pyridazin-3-yl)azetidine-3-carboxamide]
[1]
  IC50: 28.8 nM
NAMPT
  IC50: 0.497 nM

## O=C1CC[C@H](C(=O)N2CCC(c3ccc(NC(=O)C4CN(c5cccnc5)C4)cc3)CC2)N1 [Example 106, N-{4-[1-(5-oxo-D-prolyl)piperidin-4-yl]phenyl}-1-(pyridin-3-yl)azetidine-3-carboxamide]
[1]
  IC50: 160 nM
NAMPT
  IC50: 0.221 nM

## O=C(Nc1ccc(C2CCN(C(=O)CC3CCCC3)CC2)cc1)C1CN(c2ccnnc2)C1 [Example 144, N-{4-[1-(cyclopentylacetyl)piperidin-4-yl]phenyl}-1-(pyridazin-4-yl)azetidine-3-carboxamide]
[1]
  IC50: 14.6 nM
NAMPT
  IC50: 34.4 nM

## O=C(Nc1ccc(C2CCN(C(=O)Cc3ccc(C(F)(F)F)cc3)CC2)cc1)C1CN(c2cccnn2)C1 [Example 371, 1-(pyridazin-3-yl)-N-[4-(1-{[4-(trifluoromethyl)phenyl]acetyl}piperidin-4-yl)phenyl]azetidine-3-carboxamide]
[1]
  IC50: 56.7 nM
NAMPT
  IC50: 0.438 nM

## CCCCCC(=O)N1CCC(c2ccc(NC(=O)C3CN(c4cccnn4)C3)cc2)CC1 [Example 321, N-[4-(1-hexanoylpiperidin-4-yl)phenyl]-1-(pyridazin-3-yl)azetidine-3-carboxamide]
[1]
  IC50: 38.7 nM
NAMPT
  IC50: 0.864 nM

## CC(C)CC(=O)N1CCC(Oc2ccc(NC(=O)C3CN(c4cccnn4)C3)cc2)CC1 [Example 225, N-(4-{[1-(3-methylbutanoyl)piperidin-4-yl]oxy}phenyl)-1-(pyridazin-3-yl)azetidine-3-carboxamide]
[1]
  IC50: 158 nM
NAMPT
  IC50: 1.07 nM

## O=C(Nc1ccc(C2CCN(C(=O)Cc3cccc(F)c3)CC2)cc1)C1CN(c2cccnn2)C1 [Example 367, N-(4-{1-[(3-fluorophenyl)acetyl]piperidin-4-yl}phenyl)-1-(pyridazin-3-yl)azetidine-3-carboxamide]
[1]
  IC50: 33.7 nM
NAMPT
  IC50: 0.735 nM

## O=C(Nc1ccc(C2CCN(C(=O)c3ccc(O)cc3)CC2)cc1)C1CN(c2cccnn2)C1 [Example 344, N-{4-[1-(4-hydroxybenzoyl)piperidin-4-yl]phenyl}-1-(pyridazin-3-yl)azetidine-3-carboxamide]
[1]
  IC50: 37.8 nM
NAMPT
  IC50: 0.569 nM

## CC(=O)N1CCC(C(=O)N2CCC(c3ccc(NC(=O)C4CN(c5cccnn5)C4)cc3)CC2)CC1 [Example 383, N-(4-{1-[(1-acetylpiperidin-4-yl)carbonyl]piperidin-4-yl}phenyl)-1-(pyridazin-3-yl)azetidine-3-carboxamide]
[1]
  IC50: 103 nM
NAMPT
  IC50: 0.859 nM

## O=C(Nc1ccc(OC2CCN(C(=O)C(F)(F)c3ccccc3)CC2)cc1)C1CN(c2ccnnc2)C1 [Example 269, N-[4-({1-[difluoro(phenyl)acetyl]piperidin-4-yl}oxy)phenyl]-1-(pyridazin-4-yl)azetidine-3-carboxamide]
[1]
  IC50: 37.7 nM
NAMPT
  IC50: 22.3 nM

## O=C(Nc1ccc(C2CCN(C(=O)c3ccc(F)cc3)CC2)cc1)C1CN(c2cccnn2)C1 [Example 349, N-{4-[1-(4-fluorobenzoyl)piperidin-4-yl]phenyl}-1-(pyridazin-3-yl)azetidine-3-carboxamide]
[1]
  IC50: 59.5 nM
NAMPT
  IC50: 0.738 nM

## O=C(Nc1ccc(C2CCN(C(=O)CCN3CCCCC3)CC2)cc1)C1CN(c2cccnc2)C1 [Example 130, N-(4-{1-[3-(piperidin-1-yl)propanoyl]piperidin-4-yl}phenyl)-1-(pyridin-3-yl)azetidine-3-carboxamide]
[1]
  IC50: 288 nM
NAMPT
  IC50: 0.535 nM

## Cc1ccc(C(=O)N2CCC(Oc3ccc(NC(=O)C4CN(c5ccnnc5)C4)cc3)CC2)s1 [Example 304, N-[4-({1-[(5-methylthiophen-2-yl)carbonyl]piperidin-4-yl}oxy)phenyl]-1-(pyridazin-4-yl)azetidine-3-carboxamide]
[1]
  IC50: 55.4 nM
NAMPT
  IC50: 24.2 nM

## O=C(Nc1ccc(OC2CCN(C(=O)CC3CCOCC3)CC2)cc1)[C@H]1CCN(c2cccnc2)C1 [Example 11, (3S)-1-(pyridin-3-yl)-N-(4-{[1-(tetrahydro-2H-pyran-4-ylacetyl)piperidin-4-yl]oxy}phenyl)pyrrolidine-3-carboxamide]
[1]
  IC50: 2370 nM
NAMPT
  IC50: 1.93 nM

## O=C(Nc1ccc(OC2CCN(C(=O)C3CCOC3)CC2)cc1)[C@H]1CCN(c2cccnc2)C1 (stereo partly drawn) [Example 15, (3S)-1-(pyridin-3-yl)-N-(4-{[1-(tetrahydrofuran-3-ylcarbonyl)piperidin-4-yl]oxy}phenyl)pyrrolidine-3-carboxamide]
[1]
  IC50: 1660 nM
NAMPT
  IC50: 2.49 nM

## CC(C)CCC(=O)N1CC(Oc2ccc(NC(=O)C3CN(c4ccnnc4)C3)cc2)C1 [Example 263, N-(4-{[1-(4-methylpentanoyl)azetidin-3-yl]oxy}phenyl)-1-(pyridazin-4-yl)azetidine-3-carboxamide]
[1]
  IC50: 31.3 nM
NAMPT
  IC50: 20.2 nM

## Cc1cnc(C(=O)N2CCC(c3ccc(NC(=O)C4CN(c5cccnn5)C4)cc3)CC2)cn1 [Example 378, N-(4-{1-[(5-methylpyrazin-2-yl)carbonyl]piperidin-4-yl}phenyl)-1-(pyridazin-3-yl)azetidine-3-carboxamide]
[1]
  IC50: 77.1 nM
NAMPT
  IC50: 0.632 nM
